Measurements: US20240050574A1, “IONIZABLE LIPIDS” (eTheRNA immunotherapies NV, priority 2020, published 2024)

Experiments:
[1] = mRNA encapsulation efficiency by Ribogreen RNA assay; type: physicochemical; details: for % encap: eGFP mRNA; for E.E. (encapsulation efficiency): N/P 10
Experimental: Lipid based nanoparticles are produced by microfluidic mixing of an mRNA solution in sodium acetate buffer (100 mM, pH4) and lipid solution in a 2:1 volume ratio at a speed of 9 mL/min using the NanoAssemblr Benchtop (Precision Nanosystems). The lipid solution contained a mixture of the ionizable lipid of interest, DSPC, DOPC or DOPE (Avanti), Cholesterol (Sigma) and DMG-PEG2000 (Sunbright GM-020, NOF corporation. The 4 lipids were mixed at 6 different molar ratios. LNPs were dialyzed against TBS (10000 times more TBS volume than LNP volume) using slide-a-lyzer dialysis cassettes (20K MWCO, 3 mL, ThermoFisher). Size, polydispersity and zeta potential were measured with a Zetasizer Nano (Malvern). mRNA encapsulation was measured by standard Ribogreen RNA assay (Invitrogen). […]
(§1) LNP formulations were prepared using a modified procedure of a method previously described for siRNA LNP synthesis. All formulations were prepared in a sterile manner with a N/P ratio of 10. All lipid components were dissolved in ethanol at molar ratios of 50:10:38.5:1.5 mol % (ionizable lipid/DSPC/Cholesterol/DMG-PEG2000). DSPC, Cholesterol and DMG-PEG2000 were purchased from Avanti Polar Lipids (Alabaster, Alabama, USA), while the Ionizable lipids are synthesized in-house. The final lipid concentration in ethanol was fixed at 10 mg/mL. E7 mRNA was dissolved in 100 mM acetate buffer (Sigma Aldrich, Saint-Louis, Missouri, USA) pH 4. The ethanol and aqueous phase were combined using a microfluidic mixer (NanoAssemblr® BenchTop (Precision Nanosystems, Vancouver, BC) in a 2:1 (aqueous:ethanol) ratio. Formulations were dialysed afterwards against 1× Sterile TBS pH 7.4 (Sigma Aldrich, Saint-Louis, Missouri, USA) using Slide-A-Lyzer® dialysis cassettes with a MWCO of 20.000 Da (Thermo Scientific, Massachusetts, USA) for 18 hours. Afterwards, the purified formulations were concentrated using Amicon ultra centrifugal filters (EMD Millipore, Massachusetts, USA). Finally, the exact concentration and E.E. % was determined through a Ribogreen Assay prior to final dilution with TBS (100 μg/mL E7 mRNA per formulation. All formulations were characterized for size and PDI using Dynamic Light Scattering Zetasizer Nano-ZS (Malvern Pananlytical Ltd., Malvern, UK) and stored afterwards at 4° C. The physico-chemical characteristics of each formulation can be found in Table 5.

[2] = LNP size and polydispersity index by Dynamic Light Scattering (Malvern Zetasizer); type: physicochemical
[3] = as above; type: physicochemical; details: N/P 10
Experimental: Lipid based nanoparticles are produced by microfluidic mixing of an mRNA solution in sodium acetate buffer (100 mM, pH4) and lipid solution in a 2:1 volume ratio at a speed of 9 mL/min using the NanoAssemblr Benchtop (Precision Nanosystems). The lipid solution contained a mixture of the ionizable lipid of interest, DSPC, DOPC or DOPE (Avanti), Cholesterol (Sigma) and DMG-PEG2000 (Sunbright GM-020, NOF corporation. The 4 lipids were mixed at 6 different molar ratios. LNPs were dialyzed against TBS (10000 times more TBS volume than LNP volume) using slide-a-lyzer dialysis cassettes (20K MWCO, 3 mL, ThermoFisher). Size, polydispersity and zeta potential were measured with a Zetasizer Nano (Malvern). mRNA encapsulation was measured by standard Ribogreen RNA assay (Invitrogen).
Size and Poly Dispersity Index were assessed by Dynamic Light Scattering (DLS) on a Malvern Zetasizer. MC-3 is the ionizable lipid used in Onpattro and is considered the state-of-the art.
as §1

[4] = Body weight after intratumoral LNP administration (CT26 model); type: in vivo, Balb/c mice; details: after intratumoral administration of 10 μg mRNA LNP
Experimental: Fluc mRNA expression in tumor and liver was assessed at 6 an 24 hours post injection. By injecting mice peritoneally with D-luciferin (Promega), bioluminescence can be measured through in vivo imaging (IVIS Spectrum System). Bioluminescence is generated through an oxidation reaction which occurs between the enzyme luciferase derived from the firefly mRNA encapsulated in the LNP and its substrate D-luciferin. The Living Image Software (PerkinElmer) was used to specify tumor and liver ‘region of interests (ROIs) after which the average radiance (p/s/cm^2/sr) was calculated within these ROIs. To monitor tolerability of different LNP types used, bodyweight at 6 and 24 hours post injection was compared to baseline bodyweight at day of randomization.
Balb/c mice were subcutaneously inoculated with CT26 tumor cells. When tumors reached a mean volume of 50-100 mm^3, tumors were injected with the respective mRNA LNPs (10 μg mRNA; 20 μl volume; TBS buffer) or with control buffer.

[5] = Body weight after intratumoral LNP administration (B16F10 model); type: in vivo, C57/BL6 mice; details: B16F10 model (Example 2.5); after intratumoral administration of 10 μg mRNA LNP
[6] = Table 3, LNP ionizable lipid/phospholipid/cholesterol/DMG-PEG2000 about 50/10/38.5/1.5, DOPE, except MC-3 with DSPC
[7] = Table 3, LNP ionizable lipid/phospholipid/cholesterol/DMG-PEG2000 about 50/10/38.5/1.5, DOPE, except MC-3 with DSPC, eGFP mRNA
[8] = Table 3, LNP ionizable lipid/phospholipid/cholesterol/DMG-PEG2000 about 50/10/38.5/1.5, DOPE, except MC-3 with DSPC, eGFP mRNA, in nm (unit assumed)
[9] = Table 5, ionizable lipid/DSPC/Chol/DMG-PEG2000 50/10/38.5/1.5 mol %, E7 mRNA
[10] = Table 2, LNP ionizable lipid/DOPE/cholesterol/DMG-PEG2000 about 50/10/38.5/1.5
[11] = Table 2, LNP ionizable lipid/DOPE/cholesterol/DMG-PEG2000 about 50/10/38.5/1.5, eGFP mRNA
[12] = Table 2, LNP ionizable lipid/DOPE/cholesterol/DMG-PEG2000 about 50/10/38.5/1.5, eGFP mRNA, mRNA/ionizable lipid molar ratio 1/10, in nm (unit assumed)
[13] = Table 7, Ratio 1: 50/10/38.5/1.5 mol % ionizable lipid/DSPC (SS-EC: DOPE)/Chol/DMG-PEG2000
[14] = Table 6 (Example 4, HA mRNA), ionizable lipid/DSPC/Chol/DMG-PEG2000 50/10/38.5/1.5 mol %
[15] = Table 6 (Example 4, HA mRNA), ionizable lipid/DSPC/Chol/DMG-PEG2000 50/10/38.5/1.5 mol %, N/P 10

| % encap [1, 6] | PDI [2, 7] | size [2, 8] | % encap [1, 10] | PDI [2, 11] | size [2, 12] | Compound | other results |
| --- | --- | --- | --- | --- | --- | --- | --- |
| 100% | 0.241 | 67.3 | – | – | – | CCCCCCCC/C=C\CCCCCCCC(=O)OCC(CNC(=O)OCCOCCOC(=O)NCCCN1CCCCC1CC)OC(=O)CCCCCCC/C=C\CCCCCCCC (centres unmarked) [E-Ac6e-DOg] | – |
| 100% | 0.258 | 93.05 | – | – | – | CCCCCCCC/C=C\CCCCCCCC(=O)OCC(CNC(=O)OCCOCCOC(=O)NCCN1CCCCCC1)OC(=O)CCCCCCC/C=C\CCCCCCCC (centres unmarked) [E-Ac7-Dog] | – |
| 100% | 0.217 | 59.56 | – | – | – | CCCCCCCC/C=C\CCCCCCCC(=O)OCC(CNC(=O)OCCOCCOC(=O)NCCN(C)C)OC(=O)CCCCCCC/C=C\CCCCCCCC (centres unmarked) [E-Adm-Dog] | – |
| 95% | 0.268 | 75.8 | – | – | – | CCCCCCCC/C=C\CCCCCCCC(=O)OCC(CNC(=O)OCCOC(C)(C)OCCOC(=O)NCCCN1CCCCC1CC)OC(=O)CCCCCCC/C=C\CCCCCCCC (centres unmarked) [K-Ac6e-DOg] | – |
| 93% | 0.108 | 62.26 | – | – | – | CCCCCCCC/C=C\CCCCCCCC(=O)OCC(CNC(=O)OCCOC(C)(C)OCCOC(=O)NCCN1CCCCCC1)OC(=O)CCCCCCC/C=C\CCCCCCCC (centres unmarked) [K-Ac7-DOg] | E.E. (encapsulation efficiency) [1, 9]: 49%; PDI [3, 9]: 0.130; size [3, 9]: 164.8 nm |
| 94% | 0.157 | 91.9 | – | – | – | CCCCCCCC/C=C\CCCCCCCC(=O)OCC(CNC(=O)OCCOC(C)(C)OCCOC(=O)NCCN(C)C)OC(=O)CCCCCCC/C=C\CCCCCCCC (centres unmarked) [K-Adm-DOg] | – |
| 95% | 0.311 | 63.86 | – | – | – | CCCCCCCC/C=C\CCCCCCCC(=O)OCC(CNC(=O)OCCSSCCOC(=O)NCCCN1CCCCC1CC)OC(=O)CCCCCCC/C=C\CCCCCCCC (centres unmarked) [S-Ac6e-DOg] | E.E. (encapsulation efficiency) [1, 9]: 92%; PDI [3, 9]: 0.266; size [3, 9]: 178.1 nm |

Further lines, the compound ahead of its results:

| Compound | % encap [1, 6] | PDI [2, 7] | size [2, 8] | % encap [1, 10] | PDI [2, 11] | size [2, 12] | other results |
| --- | --- | --- | --- | --- | --- | --- | --- |
| CCCCCCCCCCCCN(CCCCCCCCCCCC)C(=O)OCCOC(C)(C)OCCOC(=O)NCCN(C(C)C)C(C)C [K-Adip-Dda] | – | – | – | 97% | 0.292 | 78.59 | – |
| CCCCCCCCCCCCN(CCCCCCCCCCCC)C(=O)OCCOC(C)(C)OCCOC(=O)NCCN(C)C [K-Adm-Dda] | – | – | – | 100% | 0.197 | 65.56 | – |
| CCCCC/C=C\C/C=C\CCCCCCCCC(CCCCCCCC/C=C\C/C=C\CCCCC)OC(=O)CCCN(C)C [MC3, reference compound] | 94% | 0.08 | 73.33 | 100% | 0.103 | 73.14 | E.E. (encapsulation efficiency) [1, 9]: 99%; E.E. (encapsulation efficiency) [1, 13]: 96%; body weight [4]: significant body weight loss; body weight [5]: significant body weight loss; PDI [3, 9]: 0.106; size [3, 9]: 67.57 nm; PDI [3, 13]: 0.117; size [3, 13]: 74 nm |
| CCCCCCCCCCCCN(CCCCCCCCCCCC)C(=O)OCCSSCCOC(=O)NCCN1CCCCCC1 [S-Ac7-Dda] | – | – | – | 95% | 0.223 | 74.28 | – |
| CCCCCCCCCCCCCCCCCCN(CCCCCCCCCCCCCCCCCC)C(=O)OCCSSCCOC(=O)NCCN1CCCCCC1 [S-Ac7-Dsa] | 93% | 0.158 | 89.44 | 99% | 0.188 | 71.05 | – |
| CCCCCCCCCCCCN(CCCCCCCCCCCC)C(=O)OCCSSCCOC(=O)NCCN(C(C)C)C(C)C [S-Adip-Dda] | – | – | – | 98% | 0.197 | 86.95 | – |
| CCCCCCCCCCCCCCCCCCN(CCCCCCCCCCCCCCCCCC)C(=O)OCCSSCCOC(=O)NCCN(C(C)C)C(C)C [S-Adip-Dsa] | – | – | – | 101% | 0.153 | 70.9 | – |
| CCCCCCCCC(CCCCCC)C(=O)OCCN(CCOC(=O)C(CCCCCC)CCCCCCCC)C(=O)OCCSSCCOC(=O)NCCN(C)C (centres unmarked) [S-Adm-DHDa] | – | – | – | – | – | – | E.E. (encapsulation efficiency) [1, 14]: 98%; PDI [2, 15]: 0.184; size [2, 15]: 79.075 nm |
| CCCCCCCC/C=C\CCCCCCCC(=O)OCC(CNC(=O)OCCSSCCOC(=O)NCCN(C)C)OC(=O)CCCCCCC/C=C\CCCCCCCC (centres unmarked) [S-Adm-DOg] | 98% | 0.3 | 68.08 | – | – | – | – |
| CCCCCCCCCCCCN(CCCCCCCCCCCC)C(=O)OCCSSCCOC(=O)NCCN(C)C [S-Adm-Dda] | – | – | – | 100% | 0.44 | 115.3 | – |
| CCCCCCCCCCCCCCCCCCN(CCCCCCCCCCCCCCCCCC)C(=O)OCCSSCCOC(=O)NCCN(C)C [S-Adm-Dsa] | 100% | 0.137 | 91.15 | 98% | 0.042 | 82.11 | – |
| CCCCCCCCC(CCCCCC)C(=O)OCCN(CCOC(=O)C(CCCCCC)CCCCCCCC)C(=O)OCCSSCCOC(=O)NCCN1CCN(C)CC1 (centres unmarked) [S-Amp-DHDa] | – | – | – | – | – | – | E.E. (encapsulation efficiency) [1, 14]: 99%; PDI [2, 15]: 0.1515; size [2, 15]: 106.3 nm |
